In series [1] the test system is U87-MG and U251-MG cells. Kind of series: Immunofluorescence of pH3 and Cleaved Caspase-3. The format is cell-based, human. Conditions: U87-MG and U251-MG, 1, 5 and 10 μM. How it is done:
Immunofluorescence assays were performed following standard procedures. Cells were seeded at a density of 2 × 10^4 cells/well in 8-well immunofluorescence chambers (LabTek Thermo) and incubated overnight before treating with increasing concentrations of DDI199. After 48 h, cells were fixed with 4% PFA. Primary antibodies against phosphohistone H3 (pH3) (ab14955, abcam), Cleaved Caspase 3 (AF385, R&D Systems), Ki67 (ab15580, abcam) and PARP1 (ab32064, abcam) were used. Secondary antibodies were Alexa Fluor anti-mouse (A21422, Invitrogen) and Alexa Fluor anti-rabbit (A31572, Invitrogen), and chromatin was stained with DAPI (D9541, Sigma-Aldrich). Axio Observer 7 epifluorescence microscope was used to take pictures, which were later quantified in Qupath.

Series [2] concerns U87-MG tumor cells. The series is described as follows: Oncosphere formation from disaggregated treated tumors. In kind it is cell-based. How it is done: For oncosphere formation assay, cells were cultured in non-treated 48-well plates in DMEM/F12 medium supplemented with EGF and FGF and fresh media was added every 2 days. After 7 days, oncosphere formation was documented and the number of spheres was quantified using Qupath.
For tumor growth experiments, 5 × 10^5 U87-MG cells were subcutaneously injected into two bottom flanks of athymic nude-Foxn1^nu mice, and once tumors reached a size of 25-50 mm^3, mice were sorted into groups taking into account gender and tumor size. Afterwards, mice were intratumorally treated with vehicle, SAHA 100 µM or DDI199 100 µM following a schedule of 5 days on and 2 days off. In combined treatment, mice were treated intraperitoneally with 0.5 mg/Kg of TMZ for 5 days and intratumorally following a schedule of 5 days on and 2 days off with vehicle, SAHA 100 µM or DDI199 100 µM. After 4 weeks of treatment, some mice were kept for washout experiment, while the rest were sacrificed and tumors were extracted for immunohistochemistry and to disaggregate for reinjection and oncosphere formation studies. For reinjection assays, 1.5 × 10^5 cells were subcutaneously injected and tumor size was periodically measured. Once tumors reached end-point criteria, they were extracted for immunohistochemical analysis. […]

The test system of series [3] is U87-MG cells. The series is described as follows: Washout experiment after treatment. The format is in vivo, athymic nude-Foxn1nu mice. As to the method: For tumor growth experiments, 5 × 10^5 U87-MG cells were subcutaneously injected into two bottom flanks of athymic nude-Foxn1^nu mice, and once tumors reached a size of 25-50 mm^3, mice were sorted into groups taking into account gender and tumor size. Afterwards, mice were intratumorally treated with vehicle, SAHA 100 µM or DDI199 100 µM following a schedule of 5 days on and 2 days off. In combined treatment, mice were treated intraperitoneally with 0.5 mg/Kg of TMZ for 5 days and intratumorally following a schedule of 5 days on and 2 days off with vehicle, SAHA 100 µM or DDI199 100 µM. After 4 weeks of treatment, some mice were kept for washout experiment, while the rest were sacrificed and tumors were extracted for immunohistochemistry and to disaggregate for reinjection and oncosphere formation studies. For reinjection assays, 1.5 × 10^5 cells were subcutaneously injected and tumor size was periodically measured. Once tumors reached end-point criteria, they were extracted for immunohistochemical analysis. An external caliper was used for tumor size measurement and the tumor volume was estimated using the formula V = L · W^2 · 0.5 (where L is tumor length and W is the tumor width).

Series [4] has as its system patient-derived GSCs. The series is described as follows: MTT cell viability, summary for patient-derived GSCs. The format is cell-based. Conditions: Homo sapiens, 72 h, summary statement. How it is done: (§1) MTT assay was used to study cell viability. For that, cells were seeded at a density of 1.5 × 10^3 cells/well in 96-well plates, incubated overnight and then treated with increasing concentrations of DDI199. After 72 h of treatment, MTT absorbance was measured at 570 nm. GraphPad Prism software was used to analyze results and calculate IC50 values.

Series [5] is described as follows: In vivo toxicity assay (body weight, organ macroscopy). On the set-up: species or system athymic nude-Foxn1nu mice. Conditions: intraperitoneal 15 mg/mL, 5 times per week for 4 weeks. As to the method: 15 mg/mL of DDI199 or vehicle (DMSO) were intraperitoneally injected in athymic nude-Foxn1^nu mice following a schedule of 5 days on and 2 days off and changes in body weight were measured to assess the potential toxicity of the MSM. At the end-point macroscopic analysis of the different organs was done.

The subject of series [6] is gastric, pancreatic and lung cancer cells. The series is described as follows: MTT cell viability, summary for other tumor cells. In kind it is cell-based. Conditions: Homo sapiens, 72 h, summary statement. As to the method: as §1
Series [7] addresses T1, recombinant hAChE (Homo sapiens, UniProt P22303).
T1 construct: purchased Sigma-Aldrich
Kind of series: AChE inhibition, Ellman's colorimetric method. The format is biochemical. Conditions: 10 µM compound; read-out: AChE inhibition percentage. How it is done:
Similarly, Ellman’s colorimetric method was used to study the inhibitory capacity of the compound on ChEs. Enzyme solution containing either recombinant hAChE (Sigma-Aldrich) at 0.5 U/mL or hBChE (Sigma-Aldrich) at 0.25 U/mL was incubated with inhibitor solution containing 10 µM of DDI199 or reference compound and 0.3 mM of DTNB (Sigma-Aldrich) for 20 minutes at 37 °C. […] In addition, kinetic of enzyme inhibition was also studied by repeating the same protocol and using five different concentrations of the substrate and four different concentrations of the inhibitor. Results were represented in a Lineweaver-Burk plot using GraphPad Prism software, and the constant of inhibition (Ki) was estimated from the point at which the line cuts the x-axis at the secondary plot.

Series [8] addresses HDAC6 (Homo sapiens, UniProt Q9UBN7). The series is described as follows: HDAC6 enzyme inhibition. Conditions: read-out: HDAC inhibition IC50 HDAC6. In kind it is biochemical. As to the method: The inhibitory capacity of DDI199 on HDACs was studied as previously described. The capacity of DDI199 to inhibit MAOs was studied by mimicking the reaction occurring in cells. Briefly, inhibitor solution containing 10 µM of DDI199 or reference compound was incubated for 30 minutes at 37 °C together with the enzyme solution, containing either recombinant hMAO-A (Sigma-Aldrich) at 0.5 U/mL or hMAO-B (Sigma-Aldrich) at 1.5 U/mL. 200 U/mL horseradish peroxidase (Sigma-Aldrich), 20 mM Ampliflu Red (Sigma-Aldrich) and 100 mM tyramine hydrochloride (Sigma-Aldrich) were then added and absorbance at 570 nm was measured every 5 minutes for 30 minutes. Percentage of inhibition was estimated from these values.

“And” between values parts separate entries of the source, which are not always exact repeats. Identical values can stand only once. Bounds are passed on as bounds.

These results are taken from article PMC11971462, “Generation and validation of a novel multitarget small molecule in glioblastoma” (Cell Death & Disease, 2025).

Chain of HDAC6 (Q9UBN7 whole entry): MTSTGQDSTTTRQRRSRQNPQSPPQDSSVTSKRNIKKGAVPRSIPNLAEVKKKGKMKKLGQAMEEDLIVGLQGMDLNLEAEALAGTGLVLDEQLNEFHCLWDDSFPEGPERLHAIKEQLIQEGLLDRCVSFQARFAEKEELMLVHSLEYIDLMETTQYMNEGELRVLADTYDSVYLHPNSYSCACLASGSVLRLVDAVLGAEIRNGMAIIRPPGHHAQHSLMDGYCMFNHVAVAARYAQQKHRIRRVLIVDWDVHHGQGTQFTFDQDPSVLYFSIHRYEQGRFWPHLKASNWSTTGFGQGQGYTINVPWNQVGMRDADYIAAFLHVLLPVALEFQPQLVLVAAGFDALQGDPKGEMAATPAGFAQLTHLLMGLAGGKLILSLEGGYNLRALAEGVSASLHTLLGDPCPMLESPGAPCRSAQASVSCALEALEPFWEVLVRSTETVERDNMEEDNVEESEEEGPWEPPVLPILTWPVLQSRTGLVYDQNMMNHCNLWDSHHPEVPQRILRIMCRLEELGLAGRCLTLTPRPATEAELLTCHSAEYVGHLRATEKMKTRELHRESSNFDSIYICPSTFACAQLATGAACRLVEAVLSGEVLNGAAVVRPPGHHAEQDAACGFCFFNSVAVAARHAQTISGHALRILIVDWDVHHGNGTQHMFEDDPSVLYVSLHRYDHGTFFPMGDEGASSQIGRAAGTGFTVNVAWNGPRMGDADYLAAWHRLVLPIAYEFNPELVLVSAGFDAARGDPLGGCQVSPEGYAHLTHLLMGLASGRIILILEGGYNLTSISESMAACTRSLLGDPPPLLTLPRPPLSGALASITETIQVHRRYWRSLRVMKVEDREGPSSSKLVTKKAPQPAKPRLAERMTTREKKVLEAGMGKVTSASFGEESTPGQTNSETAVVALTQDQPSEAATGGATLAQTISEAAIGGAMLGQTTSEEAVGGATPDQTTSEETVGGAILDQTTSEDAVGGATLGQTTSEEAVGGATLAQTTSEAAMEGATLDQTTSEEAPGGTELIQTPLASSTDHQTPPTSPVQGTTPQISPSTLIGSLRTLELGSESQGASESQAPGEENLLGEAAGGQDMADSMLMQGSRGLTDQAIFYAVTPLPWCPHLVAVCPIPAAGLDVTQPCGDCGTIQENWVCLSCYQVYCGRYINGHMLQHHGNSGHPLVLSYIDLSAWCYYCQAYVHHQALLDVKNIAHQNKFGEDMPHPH
T1 sequence (P22303 32-614): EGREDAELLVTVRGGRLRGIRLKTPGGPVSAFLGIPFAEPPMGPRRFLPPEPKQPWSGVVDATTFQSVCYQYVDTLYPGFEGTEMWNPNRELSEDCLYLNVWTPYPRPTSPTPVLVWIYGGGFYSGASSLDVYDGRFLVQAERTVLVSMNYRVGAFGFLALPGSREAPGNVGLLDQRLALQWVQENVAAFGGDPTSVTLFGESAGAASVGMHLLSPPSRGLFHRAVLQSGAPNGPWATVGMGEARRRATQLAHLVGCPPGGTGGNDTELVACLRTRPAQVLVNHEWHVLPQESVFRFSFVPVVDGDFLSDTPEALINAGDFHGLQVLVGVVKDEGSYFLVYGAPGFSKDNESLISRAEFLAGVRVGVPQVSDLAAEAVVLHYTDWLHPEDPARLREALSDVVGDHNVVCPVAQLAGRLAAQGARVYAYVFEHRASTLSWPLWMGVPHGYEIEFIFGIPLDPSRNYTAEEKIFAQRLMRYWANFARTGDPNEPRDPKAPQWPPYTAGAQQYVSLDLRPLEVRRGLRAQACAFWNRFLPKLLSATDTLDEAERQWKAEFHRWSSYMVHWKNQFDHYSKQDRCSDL

By IC50 is commonly meant the concentration at which inhibition is half-maximal. The inhibition is the percentage by which the read-out fell short of the control. In the case of `C#CCN(Cc1cc2cc(OCCCN3CCCCC3)ccc2n1S(=O)(=O)c1ccccc1)C(=O)CCCCCCC(=O)NO` [DDI199], in series [1], the Caspase-3 positive cells result is given as “markedly increased” and the p-H3 positive cells result is reported as “reduced”. Also, the “Oncospheres formed by cells from treated tumors” value in series [2] (GSC medium, 7 days) was “fewer oncospheres”. Also, in series [2] (TMZ plus DDI199 versus control and TMZ-treated cells), the “Oncospheres from treated tumors, combined with TMZ” value is reported as “significantly lower number of oncospheres”. In addition, the “Survival in washout experiment, combined with TMZ” value in series [3] (TMZ + DDI199 versus control, TMZ alone and TMZ plus SAHA) was “extended survival”. In addition, in series [3] (after 4 weeks treatment, controls 10 days), the “Time to end-point volume after washout” value was 20 days. Moreover, in series [3] (compared to controls and SAHA (p = 0.05)), the “Survival in washout experiment” value is recorded as “significantly longer survival”. Further, the IC50 in series [4] was 5 to 13 µM. Besides, in series [5], the “Body weight of animals compared to controls” value is “did not significantly affect the body weight” and the “Macroscopic analysis of organs at end-point” value is “did not observe any difference”. In addition, the half-maximal inhibitory concentration (IC50) in series [6] was under 3 µM. Moreover, the inhibition at 10 µM in series [7] is 25%. In addition, the IC50 in series [8] is 0.095 µM and 0.09 µM.
